The structures appear in SMILES notation.

The subject of the test is HEK293 cells. Put plainly: Flow cytometry of intracellular assemblies of compound 1 with endocytosis inhibitors. It is filed as cell-based. Particulars: compound 1 100 μM; chloroquine 100 μM, chlorpromazine 20 μM; 16 h. Here is the method: HEK293 cells were seeded in 12-well plates at 3×10^5 cells/well. After 2 hours of incubation at 37° C., cells were treated with compound 1 (100 μM) and 9-(2,2-dicyanovinyl)julolidine (DCVJ, 1.0 μM) in the presence or absence of chloroquine (100 μM), chlorpromazine (20 μM), and genistein ([…]) in DMEM (10% FBS) at 37° C. for 16 hours. Cells were harvested by incubation in 2 mM EDTA/PBS (pH of 7.4) for 10 minutes. Fluorescence of the cells was measured using a BD FACSAria II and analyzed with BD FACSDiva software.

With `CCN(CC)CCCC(C)Nc1ccnc2cc(Cl)ccc12` (centres unmarked) [chloroquine], the “Reduction of average DCVJ signal (intracellular assemblies of compound 1)” value is recorded as “about 30%”. The result for `CN(C)CCCN1c2ccccc2Sc2ccc(Cl)cc21` [chlorpromazine] reads “about 30%”.

(Values after patent publication US20260070921A1, “COMPOUND, ENDOPLASMIC RETICULUM STRESS INHIBITOR, PHARMACEUTICAL PRODUCT, OPHTHALMIC AGENT, EYE DROPS, COMPOSITION, AND METHOD FOR PRODUCING COMPOUND” (KYOTO UNIVERSITY, priority 2022, published 2026).)
